Experimental data taken from ChEMBL document CHEMBL1201862, “PubChem BioAssay data set” (2004).
Activity calls are given as the source filed them.

Columns and labels:
[1] = target: T1, Replicative DNA helicase DnaB (Mycobacterium tuberculosis, UniProt P9WMR3); assay: DnaB intein splicing inhibitors, dose response, biochemical, cell-free fluorescence (AID 449749); assay type: functional
T1 sequence (P9WMR3 whole entry): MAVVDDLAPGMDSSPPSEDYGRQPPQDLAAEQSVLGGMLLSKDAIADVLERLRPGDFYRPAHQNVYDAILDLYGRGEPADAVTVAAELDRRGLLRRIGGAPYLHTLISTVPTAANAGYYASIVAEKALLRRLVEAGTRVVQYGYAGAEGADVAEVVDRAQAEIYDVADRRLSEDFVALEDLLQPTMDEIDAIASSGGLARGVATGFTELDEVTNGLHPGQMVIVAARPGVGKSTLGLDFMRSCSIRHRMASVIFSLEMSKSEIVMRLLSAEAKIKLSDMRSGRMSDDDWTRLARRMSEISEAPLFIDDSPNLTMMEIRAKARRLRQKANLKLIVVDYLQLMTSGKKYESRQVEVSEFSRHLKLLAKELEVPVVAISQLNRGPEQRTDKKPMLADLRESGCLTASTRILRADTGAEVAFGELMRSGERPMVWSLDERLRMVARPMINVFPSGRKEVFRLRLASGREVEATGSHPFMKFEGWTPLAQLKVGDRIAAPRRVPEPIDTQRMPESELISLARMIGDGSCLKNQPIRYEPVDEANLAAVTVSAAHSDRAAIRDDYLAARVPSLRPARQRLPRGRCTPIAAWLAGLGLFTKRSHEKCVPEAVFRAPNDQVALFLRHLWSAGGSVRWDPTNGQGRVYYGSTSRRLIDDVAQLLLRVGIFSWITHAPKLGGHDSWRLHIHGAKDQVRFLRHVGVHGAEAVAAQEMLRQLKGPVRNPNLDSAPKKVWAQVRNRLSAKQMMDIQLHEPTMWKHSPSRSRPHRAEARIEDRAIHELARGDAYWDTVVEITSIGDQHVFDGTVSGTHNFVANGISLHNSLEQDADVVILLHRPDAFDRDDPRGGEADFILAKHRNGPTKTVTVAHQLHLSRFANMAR

[2] = target: T2, Probable nicotinate-nucleotide adenylyltransferase (Staphylococcus aureus (strain N315), UniProt P65502); assay type: functional, Staphylococcus aureus subsp. aureus N315; conditions: read-out: IC50_Mean;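 as to IC50 Mean: confirmatory dose-response retesting of NadD inhibitor hits first found in an ultra-high-throughput screen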
T2 sequence (P65502 whole entry): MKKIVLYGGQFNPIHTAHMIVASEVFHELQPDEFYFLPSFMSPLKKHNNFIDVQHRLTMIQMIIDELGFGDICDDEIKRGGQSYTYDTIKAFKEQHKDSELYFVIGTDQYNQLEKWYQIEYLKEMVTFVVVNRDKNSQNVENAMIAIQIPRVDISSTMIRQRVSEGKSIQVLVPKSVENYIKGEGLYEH

[3] = target: T3, Protein RecA (Mycobacterium tuberculosis, UniProt P9WHJ3); assay: Fluorescence Cell-Free Homogeneous Dose Retest to Identify Inhibitors of RecA-Intein Splicing Activity. [Related pubchem assays (depositor defined):AID2097, AID2223, AID489010, AID492950]; assay type: functional
T3 sequence (P9WHJ3 whole entry): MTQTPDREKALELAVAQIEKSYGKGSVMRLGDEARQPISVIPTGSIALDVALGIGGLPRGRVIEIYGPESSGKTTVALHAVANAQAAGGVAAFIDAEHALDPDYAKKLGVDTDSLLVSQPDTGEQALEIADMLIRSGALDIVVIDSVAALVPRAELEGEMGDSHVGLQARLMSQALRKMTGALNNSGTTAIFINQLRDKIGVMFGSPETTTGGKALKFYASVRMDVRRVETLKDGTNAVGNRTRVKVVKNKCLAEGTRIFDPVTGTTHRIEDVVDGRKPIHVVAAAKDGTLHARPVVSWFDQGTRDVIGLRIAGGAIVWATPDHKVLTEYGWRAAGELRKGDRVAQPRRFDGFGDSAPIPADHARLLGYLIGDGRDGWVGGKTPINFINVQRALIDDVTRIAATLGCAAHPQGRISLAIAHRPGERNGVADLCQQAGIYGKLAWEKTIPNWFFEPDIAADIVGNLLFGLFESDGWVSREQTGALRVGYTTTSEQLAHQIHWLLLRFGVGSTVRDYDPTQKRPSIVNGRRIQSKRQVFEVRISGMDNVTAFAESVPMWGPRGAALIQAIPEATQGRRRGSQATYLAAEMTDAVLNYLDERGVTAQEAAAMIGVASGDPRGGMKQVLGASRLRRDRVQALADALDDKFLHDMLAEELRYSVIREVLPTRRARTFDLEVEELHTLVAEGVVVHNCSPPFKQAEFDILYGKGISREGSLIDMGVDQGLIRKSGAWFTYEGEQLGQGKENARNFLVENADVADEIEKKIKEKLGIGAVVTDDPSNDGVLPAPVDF

[4] = target: T2, Probable nicotinate-nucleotide adenylyltransferase; assay type: functional, Staphylococcus aureus subsp. aureus N315
[5] = target: T4, Sentrin-specific protease 8 (Homo sapiens, UniProt Q96LD8); assay type: functional
T4 sequence (Q96LD8 whole entry): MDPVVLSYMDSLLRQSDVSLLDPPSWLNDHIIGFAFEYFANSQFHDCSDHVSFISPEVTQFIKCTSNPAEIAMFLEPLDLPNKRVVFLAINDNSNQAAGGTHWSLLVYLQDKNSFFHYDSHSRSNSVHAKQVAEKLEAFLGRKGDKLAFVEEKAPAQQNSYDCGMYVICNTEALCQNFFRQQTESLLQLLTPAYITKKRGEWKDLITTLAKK

[6] = target: T4, Sentrin-specific protease 8; assay type: functional; remark: listed apart in the source
[7] = target: T5, Corticotropin-releasing factor receptor 2/Corticotropin-releasing factor-binding protein (Homo sapiens, UniProt P24387+Q13324); assay: activators of CRF receptor 2 with binding protein – uHTS hits, confirmation (AID 602473); assay type: functional; conditions: read-out: EC50_Mean
T5 sequence (Q13324 whole entry): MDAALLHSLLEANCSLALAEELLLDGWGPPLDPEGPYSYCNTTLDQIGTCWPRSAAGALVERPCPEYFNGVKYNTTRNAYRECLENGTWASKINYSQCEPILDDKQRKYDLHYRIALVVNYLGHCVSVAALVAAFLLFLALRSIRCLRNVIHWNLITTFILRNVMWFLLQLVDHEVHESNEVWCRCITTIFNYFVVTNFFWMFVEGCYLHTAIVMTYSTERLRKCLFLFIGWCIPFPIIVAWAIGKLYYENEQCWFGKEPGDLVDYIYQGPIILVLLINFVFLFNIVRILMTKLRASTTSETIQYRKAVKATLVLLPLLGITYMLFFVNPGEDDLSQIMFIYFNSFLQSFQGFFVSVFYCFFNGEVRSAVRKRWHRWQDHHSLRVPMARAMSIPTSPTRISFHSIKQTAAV
T5 sequence (P24387 whole entry): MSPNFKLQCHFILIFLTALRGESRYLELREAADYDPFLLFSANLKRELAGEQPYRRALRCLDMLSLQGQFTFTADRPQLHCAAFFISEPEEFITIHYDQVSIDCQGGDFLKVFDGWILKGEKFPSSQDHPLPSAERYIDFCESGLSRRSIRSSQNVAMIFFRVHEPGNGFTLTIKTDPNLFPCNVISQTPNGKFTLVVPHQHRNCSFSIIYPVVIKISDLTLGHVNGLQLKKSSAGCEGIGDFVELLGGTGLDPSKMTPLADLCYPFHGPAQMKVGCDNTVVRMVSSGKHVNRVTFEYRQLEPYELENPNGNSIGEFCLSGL

[8] = target: T5, Corticotropin-releasing factor receptor 2/Corticotropin-releasing factor-binding protein; assay: Dose Response confirmation of uHTS hits for small molecule antagonists of the CRF-binding protein and CRF-R2 receptor complex.; assay type: functional; conditions: read-out: IC50_Mean
[9] = target: T6, Fatty acid synthase (Homo sapiens, UniProt P49327); assay: FAS thioesterase domain inhibitors, dose response, biochemical, kinetic fluorescence intensity (AID 624326); assay type: functional;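 also: rate of fluorescence rise from hydrolysis of a fluorogenic O-methyl fluorescein ester substrate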
T6 sequence (P49327 whole entry, the tested form may be a part): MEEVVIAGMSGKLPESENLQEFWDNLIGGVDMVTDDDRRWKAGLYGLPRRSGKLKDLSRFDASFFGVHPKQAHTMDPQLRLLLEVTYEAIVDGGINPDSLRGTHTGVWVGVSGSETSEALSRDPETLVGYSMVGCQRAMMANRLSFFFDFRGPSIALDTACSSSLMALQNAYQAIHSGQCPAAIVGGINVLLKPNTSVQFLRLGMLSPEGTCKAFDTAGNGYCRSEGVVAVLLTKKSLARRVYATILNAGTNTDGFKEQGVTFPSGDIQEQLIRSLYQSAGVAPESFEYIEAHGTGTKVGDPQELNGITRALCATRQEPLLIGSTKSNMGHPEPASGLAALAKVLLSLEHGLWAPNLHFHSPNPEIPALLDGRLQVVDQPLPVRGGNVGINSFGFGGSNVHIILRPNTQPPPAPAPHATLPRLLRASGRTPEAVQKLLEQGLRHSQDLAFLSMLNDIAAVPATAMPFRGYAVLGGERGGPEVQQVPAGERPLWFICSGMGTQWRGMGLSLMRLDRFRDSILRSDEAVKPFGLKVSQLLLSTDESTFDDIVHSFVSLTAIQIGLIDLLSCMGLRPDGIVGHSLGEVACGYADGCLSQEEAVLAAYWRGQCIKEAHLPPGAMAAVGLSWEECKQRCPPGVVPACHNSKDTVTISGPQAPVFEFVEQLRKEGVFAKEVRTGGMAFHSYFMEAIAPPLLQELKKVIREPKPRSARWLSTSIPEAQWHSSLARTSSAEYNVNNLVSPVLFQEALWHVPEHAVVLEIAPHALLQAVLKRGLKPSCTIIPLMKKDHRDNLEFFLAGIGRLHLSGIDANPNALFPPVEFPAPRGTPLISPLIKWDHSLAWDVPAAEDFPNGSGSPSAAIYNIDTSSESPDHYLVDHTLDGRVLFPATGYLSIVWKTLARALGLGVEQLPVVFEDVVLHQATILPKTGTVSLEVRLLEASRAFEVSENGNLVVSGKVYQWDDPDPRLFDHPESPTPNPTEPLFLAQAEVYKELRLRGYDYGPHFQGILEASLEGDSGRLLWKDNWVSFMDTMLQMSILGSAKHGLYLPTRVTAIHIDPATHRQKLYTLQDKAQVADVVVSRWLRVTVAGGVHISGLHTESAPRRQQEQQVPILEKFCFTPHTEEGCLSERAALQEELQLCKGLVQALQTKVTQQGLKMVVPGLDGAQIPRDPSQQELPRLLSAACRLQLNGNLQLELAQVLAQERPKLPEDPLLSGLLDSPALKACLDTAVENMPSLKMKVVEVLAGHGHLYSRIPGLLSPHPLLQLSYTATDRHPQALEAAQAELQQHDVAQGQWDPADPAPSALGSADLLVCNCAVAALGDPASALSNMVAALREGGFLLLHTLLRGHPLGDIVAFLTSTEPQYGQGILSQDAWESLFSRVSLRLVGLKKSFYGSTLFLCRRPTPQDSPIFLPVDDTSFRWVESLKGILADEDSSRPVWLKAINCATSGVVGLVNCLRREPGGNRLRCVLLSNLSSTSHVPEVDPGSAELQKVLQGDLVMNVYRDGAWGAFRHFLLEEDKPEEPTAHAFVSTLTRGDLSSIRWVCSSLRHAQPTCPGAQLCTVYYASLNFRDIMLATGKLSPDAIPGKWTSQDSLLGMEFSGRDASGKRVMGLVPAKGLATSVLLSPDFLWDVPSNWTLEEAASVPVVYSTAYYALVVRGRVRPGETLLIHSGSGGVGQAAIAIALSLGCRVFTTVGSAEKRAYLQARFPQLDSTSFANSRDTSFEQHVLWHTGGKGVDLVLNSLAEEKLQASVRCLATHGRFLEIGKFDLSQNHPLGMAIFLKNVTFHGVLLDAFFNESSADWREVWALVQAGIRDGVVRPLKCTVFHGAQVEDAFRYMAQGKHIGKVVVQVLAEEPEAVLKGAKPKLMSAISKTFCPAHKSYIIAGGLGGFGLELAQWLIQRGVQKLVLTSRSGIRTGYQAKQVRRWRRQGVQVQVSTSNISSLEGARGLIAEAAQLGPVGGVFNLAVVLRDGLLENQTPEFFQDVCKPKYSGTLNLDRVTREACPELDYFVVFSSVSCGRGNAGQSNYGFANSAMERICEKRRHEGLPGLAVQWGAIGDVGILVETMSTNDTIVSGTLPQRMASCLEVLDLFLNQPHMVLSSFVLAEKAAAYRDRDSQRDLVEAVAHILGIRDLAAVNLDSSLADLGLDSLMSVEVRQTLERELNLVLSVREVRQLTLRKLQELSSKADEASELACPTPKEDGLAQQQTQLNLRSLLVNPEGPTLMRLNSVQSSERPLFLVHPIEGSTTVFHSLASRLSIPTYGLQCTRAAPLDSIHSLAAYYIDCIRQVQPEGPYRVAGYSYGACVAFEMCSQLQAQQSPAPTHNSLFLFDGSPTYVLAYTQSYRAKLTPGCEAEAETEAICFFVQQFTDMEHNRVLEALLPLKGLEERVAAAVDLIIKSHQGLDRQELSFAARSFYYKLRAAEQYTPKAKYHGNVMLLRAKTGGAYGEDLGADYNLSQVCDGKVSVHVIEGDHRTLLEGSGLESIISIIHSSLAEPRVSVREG

[10] = CRF-BP/CRF-R2 complex antagonists, dose response, cell-based, uHTS hits, 384-well (AID 651639); assay type: functional, Homo sapiens; conditions: read-out: IC50_Mean
[11] = target: T6, Fatty acid synthase; assay: FAS thioesterase domain inhibitors, dose response, biochemical, endpoint fluorescence intensity, uHTS hits (AID 624327); assay type: functional;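 also: fluorescence from hydrolysis of an O-methyl fluorescein acyl ester substrate by the enzyme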
[12] = ZM109 Env clade C HIV-1 fusion inhibitors, dose response, HeLa effector, CEM target cells, luciferase, cherry-pick (AID 652058); assay type: functional, cell-based
[13] = inhibitors of clade B AD8 Env fusion, dose response, cell-based, cherry-pick (AID 652062); assay type: functional;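 also: luciferase signal from cell-cell fusion driven by HIV-1 clade B AD8 Env; potency is for inhibitors of fusion seen as a drop in luminescence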
[14] = off-target signal loss in HeLa-CEM21 co-culture – HeLa F-luc CTL cells, cherry-picked, counter-screen for HIV-1 Env fusion inhibitor project, dose response (AID 652040); assay type: functional, cell-based;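 also: potency for signal decrease marking cytotoxic or nonspecific inhibition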
[15] = target: T7, Rac GTPase-activating protein 1 (Homo sapiens, UniProt Q9H0H5); assay: MgcRacGAP GTPase-activating activity inhibitors, confirmation, biochemical, ADP Hunter fluorescence, primary and confirmatory (AID 624330); assay type: functional
T7 sequence (Q9H0H5 whole entry): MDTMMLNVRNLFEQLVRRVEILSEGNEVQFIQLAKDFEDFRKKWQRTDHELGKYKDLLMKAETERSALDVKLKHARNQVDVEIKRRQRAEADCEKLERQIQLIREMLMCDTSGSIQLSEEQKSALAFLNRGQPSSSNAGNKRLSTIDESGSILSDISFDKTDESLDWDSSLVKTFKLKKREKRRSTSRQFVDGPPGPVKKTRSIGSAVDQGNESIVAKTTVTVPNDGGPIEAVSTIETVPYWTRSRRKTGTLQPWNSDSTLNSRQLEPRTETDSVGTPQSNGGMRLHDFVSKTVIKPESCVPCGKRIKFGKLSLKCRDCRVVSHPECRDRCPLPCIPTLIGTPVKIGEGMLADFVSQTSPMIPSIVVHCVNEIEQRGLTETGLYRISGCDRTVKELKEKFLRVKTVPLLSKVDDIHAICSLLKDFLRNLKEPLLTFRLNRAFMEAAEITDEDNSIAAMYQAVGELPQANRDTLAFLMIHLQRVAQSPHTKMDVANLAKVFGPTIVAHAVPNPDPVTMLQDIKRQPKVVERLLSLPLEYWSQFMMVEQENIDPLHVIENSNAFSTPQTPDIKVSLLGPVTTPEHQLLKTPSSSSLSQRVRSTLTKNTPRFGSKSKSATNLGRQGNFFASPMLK

[16] = inhibitors of HIV Env-driven cell fusion, dose response, cherry-pick (AID 652057); assay type: functional, cell-based
[17] = miR-122 activators in hepatoma reporter cells, dose response, cell-based, Huh7 psiCHECK-miR122, Renilla luciferase, cherry-picked (AID 651956); assay type: functional;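 also: huh7 hepatoma cells stably carrying a psiCHECK-2 miR-122 sensor plasmid; renilla luciferase signal reporting endogenous miR-122 activity after 48 h compound exposure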
[18] = HEK293T cytotoxicity, dose response, cytotoxicity control for miR-122 modulator project, cell-based, inhibitor set, cherry-pick, set 2 (AID 720697); assay type: functional

CC1=NN(c2ccc(C)c(C)c2)C(=O)C1C(c1cccc(O)c1)C1C(=O)N(c2ccc(C)c(C)c2)N=C1C (centres undefined)
AC50 [1]: 1.14 µM (active) | IC50 [2]: 15.1 µM (active) | EC50 [3]: 0.468 µM (active) | IC50 [4]: 6.63 µM (active) | IC50 [5]: 14.7 µM (active) | IC50 [6]: 7.94 µM (active)

COc1ccc([N+](=O)[O-])cc1N(CC(O)Cn1nnc2ccccc21)S(=O)(=O)c1ccc(C)cc1 (centres undefined)
EC50 [7]: > 53 µM (inactive) | IC50 [8]: 4.39 µM (active) | IC50 [9]: 8.07 µM (active) | IC50 [10]: 8.96 µM (active) | IC50 [11]: 10.8 µM (active)

O=C(c1ccc(S(=O)(=O)Nc2ccc(F)cc2)cc1)N1CCN(C(=O)c2ccco2)CC1
AC50 [12]: 10.4 µM (active) | AC50 [13]: 2.86 µM (active) | AC50 [14]: 24.4 µM (active)

Cc1ccc(-n2nnnc2SCc2nnc(-c3ccccc3Br)o2)c(C)c1
EC50 [7]: > 53 µM (inactive) | IC50 [8]: 2.72 µM (active) | IC50 [10]: 10.7 µM (active)

COc1ccc(NCc2ccc([N+](=O)[O-])s2)c(OC)c1
IC50 [5]: 11.6 µM (active) | IC50 [15]: 34.4 µM (active) | IC50 [6]: 13.5 µM (active)

CCCN(CC(=O)Nc1ccccc1OC)C(=O)c1cccc(S(=O)(=O)NCc2ccccc2)c1
AC50 [12]: 10.3 µM (active) | AC50 [13]: 39.2 µM (active) | AC50 [16]: 4.37 µM (active) | AC50 [14]: 5.73 µM (active)

C=CCN(Cc1ccc(OC)c(OC)c1)C(=O)c1cc2cc(F)ccc2[nH]1
AC50 [12]: 9.08 µM (active) | AC50 [13]: 10.5 µM (active) | AC50 [16]: 6.22 µM (active) | AC50 [14]: 11.8 µM (active)

O=C1SCCN1N=Cc1ccc([N+](=O)[O-])o1
IC50 [5]: 61 µM (inactive) | IC50 [6]: > 100 µM (inactive)

COCC(=O)N(C)C[C@H]1Oc2cc(-c3ccccc3F)ccc2S(=O)(=O)N([C@@H](C)CO)C[C@H]1C
AC50 [17]: 3.15 µM (active) | AC50 [18]: 8.35 µM (active)

COc1ccccc1C#Cc1ccc2c(c1)O[C@H](CN(C)Cc1cccnc1)[C@@H](C)CN([C@@H](C)CO)S2(=O)=O
AC50 [17]: 25.6 µM (active) | AC50 [18]: 0.944 µM (active)
